For data set [1], the system named is bone marrow derived monocytes, CCL2-induced migration. Briefly: CCL2-induced chemotaxis assay. The following applies: pre-treated BMDMs; 100 nM recombinant mouse CCL2, 12 h; nanoparticles. It is filed as cell-based, mouse. As for the experimental part: Chemotaxis assays were performed using IBIDI µ-Slides as per the manufacturer's instructions and the recently published guide detailing the protocol. […] Cells were allowed to attach for 3 h at 37 °C, washed with 0.2 mL warm cell culture medium using a pipette tip inserted into µ-channel port, following which 100 nM recombinant mouse CCL2 protein was added as a chemoattractant (or omitted in control slides) to the one of side reservoirs. Cell movement was recorded for a duration of 12 h via phase video-microscopy in a stage-top humidified incubator at 37 °C and 5% CO2 atmosphere. Analysis was performed using the ImageJ IBIDI tracking tool, available free of charge at https://ibidi.com.

The test system of data set [2] is F4/80-positive plaque macrophages. Briefly: Immunohistochemistry / plaque macrophage co-staining. Format: in vivo, mouse. The settings on record: rhodamine signal, 24 h after injection. The procedure:
Twenty-four hours after nanoparticle injection (see above), mice were euthanized and abdominal aortas were isolated and embedded in Optimal Cutting Temperature compound. After cryotome-sectioning, resulting in 20-30 slides per mouse, 15 slides were sent to Ohio State laser capture microdissection core lab for capture and analysis. The rest of the slides were processed as follows: after fixation in methanol:acetone 50:50 at -20 °C, slides were hydrated in PBS, blocked for 30 min in fish serum (Aqua Block) and stained for 1 h with primary antibodies against F4/80 followed washing and staining with HRP-conjugated secondary antibody for 30 min. DAB peroxidase kit was then used as per manufacturer's instructions followed by mounting. DAB and antibody staining (but not wash steps) was omitted in slides designated for nanoparticle fluorescence visualization. Nanoparticles fluorescence was visualized with Zeiss 510 LSM-meta confocal microscope and 20x objective. DAB F4/80 staining was visualized with Nikon FN1 microscope and same power objective.

The nature of data set [3]: Dynamic light scattering of nanoparticles. It is filed as physicochemical. The settings on record: Malvern Zetasizer Nano S, listed as C3. The procedure:
Lipid-peptide conjugates were synthesized from either DSPE-PEG-CO2H or DSPE-PEG-MAL using peptides derived using SVM prediction platform and listed in Supplementary Table S2. The peptides were conjugated to either the N-terminus or via sulfhydryl groups as depicted in Figure 1E. Lipid films from both PEGylated derivatives were prepared by evaporation under nitrogen gas, from 1 µM of lipid solution in chloroform. Tetrapeptides were custom-synthesized by Genscript. 5 µmol of peptide solutions in water:dimethylformamide (1:1) were prepared via a brief bath sonication. […] PEGylated lipids prepared above were sonicated (10 min, 300 W, room temperature) in 5 mL of MES (pH 6, 100 mM) for DSPE-PEG-CO2H and in 5 mL of HEPES buffered saline [HBS] (pH 7.2, 100 mM, 154 mM NaCl) for DSPE-PEG-MAL. Next, DSPE-PEG-CO2H was activated by the addition of 2 mg of EDC (20 mg/mL in water) and 5 mg of sulfo-NHS (10 mg/mL in water). This was sonicated at 15 W for 10 min in a temperature controlled bath at 30 °C. Then, peptide solutions/suspensions were added to the resulting DSPE-PEG-NHS or previously prepared DSPE-PEG-MAL and stirred at room temperature for 4 h. The reaction with DSPE-PEG-NHS was quenched by the addition of 100 µL of 0.5 M of NH2OH in HBS, plus 1 mM EDTA. The reaction with DSPE-PEG-MAL was quenched by the addition of 7 µL of 2-mercaptoethanol. The solution was freezed at -80 °C and lyophilized. Next, lipid-peptide conjugates were extracted with chloroform (3 x 2 mL) and centrifuged at 4000 g x 5 min. Combined extract supernatants were evaporated under N2 gas and sonicated (10 min, 100 W) in 0.5-1 mL of water at room temperature. This raw product was purified by size […] chromatography as follows. Millipore Vantage column (10 x 500 mm) was packed with Sepharose 4B in deionized water under flow rate of 0.5 mL/min. Next, 0.5 mL of raw nanoparticle preparation was injected into the column and 0.5 mL fractions were collected at 0.5 mL/min simultaneously with UV detection at 190, 214, 250 and 280 nm using the Bio Rad DuoFlow system equipped with BioLogic QuadTec UV/Vis detector. See Supplementary Figure S2 for representative chromatograms. Combined fractions 15-31 were frozen and lyophilized. Particles used in signalling In vitro work were prepared by reconstitution of lyophilizates in PBS or HBS buffer via sonication. Particles used in reporter, flow cytometry and microscopy experiments were prepared by addition of 1% (by weight) of Rhodamine-PE in ethanol followed by reconstitution as described above. Particles used in magnetic resonance imaging (MRI) and time-resolved fluorescence (TRF) assays were prepared by addition of 10-20% (by weight) of gadolinium or europium chelate-lipids followed by reconstitution as above. Gadolinium-DTPA (18:0 PE-DTPA) was obtained from Avanti Polar Lipids and europium cryptate-NHS was obtained from Aat Bioquest (Supplementary Table S1). Europium cryptate-NHS was further conjugated to phosphatidylethanolamine (PE) to obtain Eu-cryptate-PE according to published and well established protocols. To confirm peptide conjugation, the powder was reconstituted in 1 mL of chloroform and analyzed with TLC (eluent chloroform:methanol:water 65:25:4) detecting with Molybdenum blue (Supplementary Figure S3A) or Dragendorff reagent (Supplementary Figure S3B). Nanoparticles were characterized by dynamic light scattering using Malvern Zetasizer Nano S (Supplementary Table S3). The presence of the peptide bond (N-H) and aliphatic C-H and C-C stretches (lipids) was confirmed by infrared (IR) spectroscopy. Nanoparticles were isolated as a homogeneous population (peak) in gel-filtration (see above) and were used without additional purification.

Data set [4] relates to BMDMs from CCR2-knockout mice. Kind of data set: Actin polymerization in BMDMs from CCR2-knockout mice. Format: cell-based, mouse. The procedure:
BMDMs were seeded and cultured on #1 glass coverslips in the presence or absence of 10 μM CCTV or VTCC for 6 h. Next, cells were washed with PBS and recombinant mouse CCL2 was added to a final concentration of 500 nM. Then, cells were incubated for varying times (indicated in Figure 2G), after which they were immediately placed on ice and washed 3 times with cold PBS. Actin polymerization was then visualized following staining with phalloidin Alexa Fluor 633, according to the manufacturer's instructions.

For data set [5], the system named is RAW cells. Briefly: Flow cytometry competition with excess free peptide. Format: cell-based, mouse. The settings on record: excess (1 mM) free peptide. The source says: Figure 1 Screening identifies CCTV as an anti-inflammatory nanoparticle with high affinity for CC chemokine receptor 2. A) A screening of a small library of nanoparticles in lipopolysaccharide (LPS)-stimulated macrophage reporter cells (RAW-Blue) identified CCTV, which downregulates nuclear factor-kappa B (NF-κB) activity. Each point on the plot represents a relative activity of NF-κB (X-coordinate) and corresponding nanoparticle content per mg of cell protein (Y-coordinate) calculated from nanoparticle fluorescence. […] Dexamethasone (Dex) is an NF-κB inhibitor and was used as a positive control. Vehicle-treated and unstained (US) cells served as a negative control. B) CCTV binding to the cell surface was validated in RAW cells using fluorescence microscopy. The cells were stained at 4 °C or room temperature for 30 min with CCTV or vehicle nanoparticles (sudo-colored green). […] E) The Basic Local Alignment Search Tool (BLAST) analysis determined that CCTV peptide sequence repeats in mouse and human CC chemokine receptor family. […]
For a targeted nanotherapy to be effective, the nanoparticles must have affinity to a specific cell type, usually determined by cell surface binding. […] Thus, we used the mouse macrophage reporter cell line RAW-Blue that allowed for monitoring activity of Nuclear Factor-kappa B (NF-kB) and also enabled In vitro quantitation of nanoparticle binding to the cell surface. […]
For orientation: Flow cytometry measures light scatter and fluorescence of single cells or particles in a stream.

Data set [6] relates to recombinant CCR2 protein. Kind of data set: Competition with CCL2 binding to immobilized CCR2. The following applies: free peptide 1 mM in dimethylformamide, 1 h room temperature, recombinant human CCL2; OD 450 nm; three independent experiments. The procedure: A sandwich-type plate-based immunoassay was developed in-house to study CCR2 receptor binding. Black opaque plates (for fluorescence studies) or clear high protein binding plates (for absorbance studies) were coated with recombinant CCR2 protein at 2 µg/mL in PBS overnight at 4 °C. Plates were washed 5 times with PBS and treated as follows: for nanoparticles binding, varying concentrations of fluorescent nanoparticles or vehicle control (see above) in PBS were added to the opaque plates and incubated for 4 h at room temperature. For peptide competition/binding studies, recombinant human CCL2 was added in clear plates at varying concentrations in PBS simultaneously with a large excess of peptides (1 mM final concentration, dissolved in dimethylformamide) and incubated for 1 h at room temperature. All plates were washed 5 times with PBS and fluorescence in opaque plates was read at 550 nm excitation and 620 nm emissions. […] Clear plates were washed and incubated with 0.1 µg/mL streptavidin-HRP. Finally, clear plates were washed and incubated with SigmaFast OPD reagent in the presence of hydrogen peroxide-urea, as per the manufacturer's instructions. After 30 min incubation period at 37 °C, the plates were read at 450 nm on a multiwell plate reader as described above. Fluorescence emission values and OD at 450 nm were plotted against concentration using a 4-parametric fit.

On to VTCC, for which the CCL2-induced monocyte migration entry in data set [1] is recorded as “not seen with VTCC”. Moreover, the “co-staining with F4/80 in plaque” value in data set [2] is reported as “not VTCC rhodamine signal”. In addition, the “Mean Polydispersity Index (PDI)” value in data set [3] was 0.148. In data set [3] (hydrodynamic diameter), the “Size (Mean Z average)” value is given as 167 nm.
“CCL2: recombinant mouse CCL2/MCP-1 protein, natural CCR2 ligand”: in data set [4], the “actin polymerization in CCR2-knockout BMDMs” value is listed as “neither nanoparticles nor CCL2 are able to induce polymerization”.
As to “CCTV [free CCTV peptide, free (unconjugated) CCTV tetrapeptide]”, the “reduction of CCTV nanoparticle staining by free peptide” value in data set [5] is on record as “did not show appreciable reduction in CCTV staining in RAW cells”. In addition, in data set [6], the “competition with CCL2 binding to CCR2” value is listed as “insignificantly competed with receptor binding of natural CCR2 ligand”.
